Results on five compounds are retold here after patent US10696637B2, “Nitrogen-containing heterocyclic compound” (FUJIFILM Corporation, priority 2015, dated 2020).

Usually inhibition stands for how much of the control response was suppressed.

Bounds are passed on as bounds.

This test relates to CXCL10 production. The test can be described thus: CXCL10 production inhibition test. The class given is cell-based. The conditions noted are these: Endothelial cell; test compound 0.1 μmol/L; human umbilical vein-derived endothelial cells; TNFα 10 ng/mL; supernatant 72 hours after stimulation; ELISA; read-out: Rate of inhibition of CXCL10 production. The protocol:
(CXCL10 Production Inhibition Test)
0.5×10^4 or 1×10^4 human umbilical vein-derived endothelial cells were suspended in 100 μL of an EGM-2 BulletKit medium (without GA) or a Medium-200 medium supplemented with an EGM-2 SingleQuots kit (without GA), inoculated to a 96-well plate and cultured overnight. 100 μL of a solution of each test compound diluted with the same medium as that used in the inoculation was added to the cultured cells (final concentration of the test compound: 0.1 μmol/L). 1 hour thereafter, TNFα was added thereto at a final concentration of 10 ng/mL. 72 hours after the stimulation, the supernatant was recovered, and the amount of CXCL10 produced in the culture supernatant was determined using an ELISA kit (Peprotech, 900-109).
The rate of inhibition was calculated according to the following expression: Rate of inhibition (%)=100−(Amount of CXCL10 produced in the presence of the test compound/Amount of CXCL10 produced in the absence of the test compound)×100

`CCn1c(=O)cc(N2CCOCC2)c2cc(-n3c(-c4ccc(Cl)cc4)cn(C)c3=O)ccc21` [Example 246, 6-(5-(4-chlorophenyl)-3-methyl-2-oxo-2,3-dihydro-1H-imidazol-1-yl)-1-ethyl-4-(morpholin-4-yl)quinolin-2(1H)-one]: the inhibition at 0.1 µM is at least 50%.

Consider `CCn1c(=O)cc(N2CCOCC2)c2cc(-n3c(-c4ccccc4)cn(CCO)c3=O)ccc21` [Example 262, 1-ethyl-6-(3-(2-hydroxyethyl)-2-oxo-5-phenyl-2,3-dihydro-1H-imidazol-1-yl)-4-(morpholin-4-yl) quinolin-2(1H)-one], for which the inhibition at 0.1 µM was at least 50%.

For the compound `CCn1c(=O)cc(C2CC2)c2cc(-n3c(-c4ccc(C(F)(F)F)cc4)cn(C)c3=O)ccc21` [Example 267, 4-cyclopropyl-1-ethyl-6-(3-methyl-2-oxo-5-(4-(trifluoromethyl)phenyl)-2,3-dihydro-1H-imidazol-1-yl)quinolin-2(1H)-one], the inhibition at 0.1 µM is at least 50%.

`CCn1c(=O)cc(C2CC2)c2cc(-n3c(-c4ccc(C)cc4)cn(C)c3=O)ccc21` [Example 275, 4-cyclopropyl-1-ethyl-6-(3-methyl-5-(4-methylphenyl)-2-oxo-2,3-dihydro-1H-imidazol-1-yl)quinolin-2(1H)-one]: the inhibition at 0.1 µM was at least 50%.

For the compound `CCn1c(=O)cc(C2CCN(C)CC2)c2cc(C(=O)N3CCCc4ccccc43)ccc21` [Example 11, 6-(3,4-dihydroquinolin-1(2H)-ylcarbonyl)-1-ethyl-4-(1-methylpiperidin-4-yl)quinolin-2(1H)-one], the inhibition at 0.1 µM was at least 50%.
